In patent publication US8394848B2, “Compounds that modulate intracellular calcium” (Calcimedica, Inc., priority 2008, dated 2013):

Test system: JR251 or RBL cells
Experiment: Store-operated calcium entry, either JR251 or RBL cells, or both
Type: cell-based
Outline: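 Orai1/STIM1 stable cells: fluo-4-AM loaded, compound 30 min at RT in Ca2+-free HBSS, then CaCl2 added; IC50 from Peak-Basal FLIPR fluorescence. RBL-2H3 cells: compound 5 min, then thapsigargin (5.5× stock, 5.5 uM) 25 min, then calcium added; IC50 from Upslope (signal 7 s after calcium minus baseline).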

| IC50 [µM] | SMILES |
| --- | --- |
| < 10 | Cc1ccc(-c2csc(NC(=O)c3scc(S(=O)(=O)c4ccc(Cl)cc4)c3C)c2C(=O)O)cc1 [2-(4-(4-chlorophenylsulfonyl)-3-methylthiophene-2-carboxamido)-4-p-tolylthiophene-3-carboxylic acid] |
| < 10 | COc1cccc2cc(-c3csc(NC(=O)c4ccc5snnc5c4)c3C(=O)O)oc12 [2-(benzo[d][1,2,3]thiadiazole-5-carboxamido)-4-(7-methoxybenzofuran-2-yl)thiophene-3-carboxylic acid] |
| < 10 | O=C(O)c1c(-c2ccc(Cl)c(Cl)c2)csc1NC(=O)C1CC1 [2-(cyclopropanecarboxamido)-4-(3,4-dichlorophenyl)thiophene-3-carboxylic acid] |
| < 10 | CCc1cccc(NC(=O)Nc2scc(-c3ccc(Br)cc3)c2C(=O)O)c1 [4-(4-bromophenyl)-2-(3-(3-ethylphenyl)ureido)thiophene-3-carboxylic acid] |
| < 10 | O=C(Nc1scc(-c2ccc(Br)cc2)c1C(=O)O)c1ccc(C(F)(F)F)nc1 [4-(4-bromophenyl)-2-(6-(trifluoromethyl)nicotinamido)thiophene-3-carboxylic acid] |
| < 10 | O=C(Nc1scc(-c2ccc(Cl)cc2)c1C(=O)O)c1ccc(-c2ccc(Cl)cc2)o1 [4-(4-chlorophenyl)-2-(5-(4-chlorophenyl)furan-2-carboxamido)thiophene-3-carboxylic acid] |
| < 10 | O=C(Nc1scc(-c2ccc(Cl)cc2)c1C(=O)O)/C(F)=C/c1ccccc1Cl [(Z)-4-(4-chlorophenyl)-2-(3-(2-chlorophenyl)-2-fluoroacrylamido)thiophene-3-carboxylic acid] |
| < 10 | Cc1cccc2nc(C(=O)Nc3scc(-c4ccc(Cl)cc4)c3C(=O)O)cnc12 [4-(4-chlorophenyl)-2-(5-methylquinoxaline-2-carboxamido)thiophene-3-carboxylic acid] |
| < 10 | O=C(Nc1scc(-c2ccc3c(c2)CCC3)c1C(=O)O)c1cc2ccccc2o1 [2-(benzofuran-2-carboxamido)-4-(2,3-dihydro-1H-inden-5-yl)thiophene-3-carboxylic acid] |
| < 10 | Cc1c(-c2csc(NC(=O)c3cc4ccccc4o3)c2C(=O)O)ccc(Cl)c1Cl [2-(benzofuran-2-carboxamido)-4-(3,4-dichloro-2-methylphenyl)thiophene-3-carboxylic acid] |
| < 10 | O=C(O)c1c(-c2ccc(Cl)cc2)csc1NC(=O)C(Cl)Cc1ccccc1 (stereo not shown) [2-(2-chloro-3-phenylpropanamido)-4-(4-chlorophenyl)thiophene-3-carboxylic acid] |
| < 10 | O=C(O)c1c(-c2ccc(Br)cc2)csc1NC(=O)C(F)Cc1c(F)cccc1Cl (stereo not shown) [4-(4-bromophenyl)-2-(3-(2-chloro-6-fluorophenyl)-2-fluoropropanamido)thiophene-3-carboxylic acid] |
| < 10 | Cc1cc(C#N)ccc1-c1csc(NC(=O)c2nc3ccccc3o2)c1C(=O)O [2-(benzo[d]oxazole-2-carboxamido)-4-(4-cyano-2-methylphenyl)thiophene-3-carboxylic acid] |
| < 10 | COc1cccc2cc(-c3csc(NC(=O)c4nc5ccccc5o4)c3C(=O)O)oc12 [2-(benzo[d]oxazole-2-carboxamido)-4-(7-methoxybenzofuran-2-yl)thiophene-3-carboxylic acid] |
| < 10 | O=C(Nc1scc(-c2ccc(Cl)cc2)c1C(=O)O)c1ccc([N+](=O)[O-])o1 [4-(4-chlorophenyl)-2-(5-nitrofuran-2-carboxamido)thiophene-3-carboxylic acid] |
| < 10 | O=C(Nc1scc(-c2ccc(Br)cc2)c1C(=O)O)c1cc2occc2[nH]1 [4-(4-bromophenyl)-2-(4H-furo[3,2-b]pyrrole-5-carboxamido)thiophene-3-carboxylic acid] |
| < 10 | O=C(CCc1ccc(F)c(F)c1)Nc1scc(-c2ccc(Br)cc2)c1C(=O)O [4-(4-bromophenyl)-2-(3-(3,4-difluorophenyl)propanamido)thiophene-3-carboxylic acid] |
| < 10 | O=C(Cc1coc2ccccc12)Nc1scc(-c2ccc(Br)cc2)c1C(=O)O [2-(2-(benzofuran-3-yl)acetamido)-4-(4-bromophenyl)thiophene-3-carboxylic acid] |
| < 10 | O=C(CCc1ccccc1Cl)Nc1scc(-c2ccc(Br)cc2)c1C(=O)O [4-(4-bromophenyl)-2-(3-(2-chlorophenyl)propanamido)thiophene-3-carboxylic acid] |
| < 10 | O=C(Nc1scc(-c2ccc(C(F)(F)F)cc2)c1C(=O)O)c1nc2ccccc2o1 [2-(benzo[d]oxazole-2-carboxamido)-4-(4-(trifluoromethyl)phenyl)thiophene-3-carboxylic acid] |
| < 10 | CC(C)(CC(=O)Nc1scc(-c2ccc(Cl)cc2)c1C(=O)O)c1ccccc1 [4-(4-chlorophenyl)-2-(3-methyl-3-phenylbutanamido)thiophene-3-carboxylic acid] |
| < 10 | O=C(Nc1scc(-c2ccc(Cl)cc2)c1C(=O)O)c1nc2cc(F)ccc2o1 [4-(4-chlorophenyl)-2-(5-fluorobenzo[d]oxazole-2-carboxamido)thiophene-3-carboxylic acid] |

| IC50 [µM] | SMILES |
| --- | --- |
| < 10 | Cc1ccc(-c2csc(NC(=O)c3ccc4ccccc4n3)c2C(=O)O)cc1 [2-(quinoline-2-carboxamido)-4-p-tolylthiophene-3-carboxylic acid] |
| < 10 | COc1cc(-c2csc(NC(=O)c3ccc4snnc4c3)c2C(=O)O)ccc1Cl [2-(benzo[d][1,2,3]thiadiazole-5-carboxamido)-4-(4-chloro-3-methoxyphenyl)thiophene-3-carboxylic acid] |
| < 10 | COc1c(Cl)ccc(-c2csc(NC(=O)c3cc4ccccc4o3)c2C(=O)O)c1Cl [2-(benzofuran-2-carboxamido)-4-(2,4-dichloro-3-methoxyphenyl)thiophene-3-carboxylic acid] |
| < 10 | CC(Cc1ccccc1)C(=O)Nc1scc(-c2ccc(Br)cc2)c1C(=O)O (stereo not shown) [4-(4-bromophenyl)-2-(2-methyl-3-phenylpropanamido)thiophene-3-carboxylic acid] |
| < 10 | O=C(Nc1scc(-c2ccc(F)c(F)c2F)c1C(=O)O)c1nc2ccccc2o1 [2-(benzo[d]oxazole-2-carboxamido)-4-(2,3,4-trifluorophenyl)thiophene-3-carboxylic acid] |
| < 10 | Cc1ccc(-c2csc(NC(=O)c3ccsc3)c2C(=O)O)cc1C [4-(3,4-dimethylphenyl)-2-(thiophene-3-carboxamido)thiophene-3-carboxylic acid] |
| < 10 | O=C(Nc1scc(-c2ccc(F)c(O)c2F)c1C(=O)O)c1nc2ccccc2o1 [2-(benzo[d]oxazole-2-carboxamido)-4-(2,4-difluoro-3-hydroxyphenyl)thiophene-3-carboxylic acid] |
| < 10 | O=C(Nc1scc(-c2ccc(Cl)cc2)c1C(=O)O)c1cc2ccccc2nn1 [4-(4-chlorophenyl)-2-(cinnoline-3-carboxamido)thiophene-3-carboxylic acid] |
| < 10 | O=C(Nc1scc(-c2cccc(Cl)c2)c1C(=O)O)c1ccsc1 [4-(3-chlorophenyl)-2-(thiophene-3-carboxamido)thiophene-3-carboxylic acid] |
| < 10 | Cc1ccc(-c2csc(NC(=O)c3cc(C)n(C)n3)c2C(=O)O)cc1 [2-(1,5-dimethyl-1H-pyrazole-3-carboxamido)-4-p-tolylthiophene-3-carboxylic acid] |
| < 10 | O=Cc1sccc1OCC(=O)Nc1scc(-c2ccc(Cl)cc2)c1C(=O)O [4-(4-chlorophenyl)-2-(2-(2-formylthiophen-3-yloxy)acetamido)thiophene-3-carboxylic acid] |
| < 10 | O=C(Nc1scc(-c2ccc(Cl)cc2)c1C(=O)O)c1nc2c(F)cc(F)cc2o1 [4-(4-chlorophenyl)-2-(4,6-difluorobenzo[d]oxazole-2-carboxamido)thiophene-3-carboxylic acid] |
| < 10 | O=C(Nc1scc(-c2cc3cccc(O)c3o2)c1C(=O)O)c1ccc2snnc2c1 [2-(benzo[d][1,2,3]thiadiazole-5-carboxamido)-4-(7-hydroxybenzofuran-2-yl)thiophene-3-carboxylic acid] |
| < 10 | O=C(Nc1scc(-c2ccc(Cl)cc2F)c1C(=O)O)c1nc2cccc(F)c2s1 [4-(4-chloro-2-fluorophenyl)-2-(7-fluorobenzo[d]thiazole-2-carboxamido)thiophene-3-carboxylic acid] |
| < 10 | Cc1oc(-c2ccccc2)cc1C(=O)Nc1scc(-c2ccc(Cl)cc2)c1C(=O)O [4-(4-chlorophenyl)-2-(2-methyl-5-phenylfuran-3-carboxamido)thiophene-3-carboxylic acid] |
| < 10 | O=C(CCCc1ccccc1)Nc1scc(-c2ccc(Cl)cc2)c1C(=O)O [4-(4-chlorophenyl)-2-(4-phenylbutanamido)thiophene-3-carboxylic acid] |
| < 10 | O=C(Nc1scc(-c2ccc(Br)cc2)c1C(=O)O)c1ccc2snnc2c1 [2-(benzo[d][1,2,3]thiadiazole-5-carboxamido)-4-(4-bromophenyl)thiophene-3-carboxylic acid] |
| < 10 | O=C(Nc1scc(-c2ccc3c(c2)CCC3)c1C(=O)O)c1nc2ccccc2o1 [2-(benzo[d]oxazole-2-carboxamido)-4-(2,3-dihydro-1H-inden-5-yl)thiophene-3-carboxylic acid] |
| < 10 | O=C(Nc1scc(-c2ccc(Cl)cc2)c1C(=O)O)c1nc2cc(Br)ccc2o1 [2-(5-bromobenzo[d]oxazole-2-carboxamido)-4-(4-chlorophenyl)thiophene-3-carboxylic acid] |
| < 10 | Cc1nn(C)c2sc(C(=O)Nc3scc(-c4ccc(Cl)cc4)c3C(=O)O)cc12 [4-(4-chlorophenyl)-2-(1,3-dimethyl-1H-thieno[2,3-c]pyrazole-5-carboxamido)thiophene-3-carboxylic acid] |
| < 10 | COc1ccc(C(=O)Nc2scc(-c3ccc(Cl)cc3)c2C(=O)O)c(OC)n1 [4-(4-chlorophenyl)-2-(2,6-dimethoxynicotinamido)thiophene-3-carboxylic acid] |
